Laboratory results as given in US11167012B2, “Peptide inhibition of CCR3-mediated diseases or conditions” (The Board of Trustees of the University of Illinois, priority 2015, dated 2021).
Where a SMILES comes first, the peptide text is derived from it. The star is where a group is joined. X1 = NC(=O)CCOCCOCCOCCOCCOCCOCCOCCOCCOCCOCCOCCOCCOCCOCCOCCOCCOCCOCCOCCOCCOCCOCCOCCOCCOCCOCCOCCOCCN*

How the values were obtained:
[1] = molecular target: T1, CCR3 (Homo sapiens, UniProt P51677); experiment: CCR3 degradation in cycloheximide-treated AML14.3D10-CCR3 cells, immunoblot; type: cell-based; design: host or cells: AML14.3D10-CCR3 (eosinophilic myelocytic cell line, kept under G418); conditions: 10 μM, 8 nM eotaxin or RANTES for 3 hours
T1 sequence (P51677 1-355): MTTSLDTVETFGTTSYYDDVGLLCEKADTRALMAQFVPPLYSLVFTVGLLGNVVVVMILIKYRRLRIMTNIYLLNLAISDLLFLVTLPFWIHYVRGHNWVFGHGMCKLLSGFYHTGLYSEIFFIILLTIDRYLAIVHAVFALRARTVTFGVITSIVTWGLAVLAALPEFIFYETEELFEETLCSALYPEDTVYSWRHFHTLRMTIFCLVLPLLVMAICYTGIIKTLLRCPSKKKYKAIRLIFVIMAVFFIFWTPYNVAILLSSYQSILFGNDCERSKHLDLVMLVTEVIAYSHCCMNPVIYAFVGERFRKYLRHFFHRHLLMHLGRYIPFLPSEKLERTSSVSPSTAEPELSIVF
Protocol: AML14.3D10-CCR3 cells were resuspended in RPMI-1640+0.1% BSA. Aliquots of 1×10^6 cells were pretreated with 10 μM cycloheximide for 1 hour at 37° C. Some cells were concurrently pretreated with 10 μM R3-2-1, 10 μM MG132, or both for 30 minutes. Pretreated cells were stimulated with 8 nM eotaxin or RANTES for 3 hours to induce receptor degradation. An aliquot of untreated cells were reserved at the start of the experiment to establish baseline CCR3 expression. All cells were then lysed in RIPA buffer and immunoblotted for CCR3 with a polyclonal rabbit anti-CCR3 antibody (Abcam) followed by goat anti-rabbit IgG-HRP secondary antibody (Santa Cruz).

[2] = molecular target: T1, CCR3; experiment: Chemotaxis assay (Transwell), AML14.3D10-CCR3 cells; type: cell-based; design: host or cells: AML14.3D10-CCR3 (eosinophilic myelocytic cell line, kept under G418); conditions: for IC90: 4 hours
Protocol: AML14.3D10-CCR3 (ATCC, Manassas, Va.; Daugherty, et al. (1996) J. Exp. Med. 183:2349-2354) were maintained in RPMI-1640 supplemented with 10% FBS, 1.5 g/L sodium bicarbonate, 4.5 g/L glucose, 2 mM L-glutamine, 10 mM HEPES, 1 mM sodium pyruvate, 50 μM β-mercaptoethanol, and 2 mg/ml G418 in a humidified incubator with 5% CO2 at 37° C.
Cell migration was determined using a 96-well […]® system (Corning, Tewksbury, Mass.). […] The two chambers were separated by a polycarbonate filter with 5 μm pores. For AML14.3D10-CCR3 cells, 2×10^5 cells/well were resuspended in RPMI-1640+0.1% BSA and allowed to migrate for 4 hours at 37° C. For blood eosinophils, 1×10^5 cells/well were resuspended in X-VIVO 10+0.5% BSA and allowed to migrate for 3 hours at 37° C. Migrated cells were counted using a Beckman QUANTA SC flow cytometer. All experiments were performed in duplicate. Checkerboard analysis was done to distinguish chemotaxis from chemokinesis.
Primary eosinophils and the stable CCR3+eosinophilic myelocytic cell line, AML14.3D10-CCR3 (Daugherty, et al. (1996) J. Exp. Med. 183:2349-2354) undergo CCR3-mediated chemotaxis induced by multiple chemokines including eotaxin/CCL11, RANTES/CCL5, MCP-4/CCL13, and MEC/CCL28 (Daugherty, et al. (1996) J. Exp. Med. 183:2349-2354; Pan, et al. (2000) J. Immunol. 165:2943-2949).

- chemotactic (agonist) activity by itself ([2]; AML14.3D10-CCR3 cells, no chemokine): not chemotactic
- IC90 ([2]; AML14.3D10-CCR3 cells, chemotaxis to CCL11/Eotaxin-1 (12 nM)): 1750 ± 200 nM
- IC90 ([2]; AML14.3D10-CCR3 cells, chemotaxis to CCL24/Eotaxin-2 (20 nM)): 890 ± 120 nM
- IC90 ([2]; AML14.3D10-CCR3 cells, chemotaxis to CCL26/Eotaxin-3 (100 nM)): 780 ± 100 nM
Structure (SMILES): CC[C@H](C)[C@H](NC(=O)[C@H](Cc1c[nH]c2ccccc12)NC(=O)[C@H](Cc1ccccc1)NC(=O)[C@@H]1CCCN1C(=O)[C@H](CC(C)C)NC(=O)[C@@H](NC(=O)[C@@H](NC(=O)[C@H](CC(C)C)NC(=O)[C@H](Cc1ccccc1)NC(=O)[C@H](CC(C)C)NC(=O)[C@@H](N)CC(C)C)C(C)C)[C@@H](C)O)C(=O)N[C@@H](Cc1c[nH]cn1)C(=O)N[C@@H](Cc1ccc(O)cc1)C(=O)N[C@H](C(=O)N[C@@H](CCCNC(=N)N)C(=O)NCC(=O)N[C@@H](Cc1c[nH]cn1)C(=O)N[C@@H](CC(N)=O)C(=O)N[C@@H](Cc1c[nH]c2ccccc12)C(=O)N[C@H](C(=O)N[C@@H](Cc1ccccc1)C(=O)NCC(=O)N[C@@H](Cc1c[nH]cn1)C(=O)N[C@@H](CC(=O)O)C(=O)N[C@@H](CC(=O)O)C(=O)N[C@@H](CC(=O)O)C(=O)NCCOCCOCCOCCOCCOCCOCCOCCOCCOCCOCCOCCOCCOCCOCCOCCOCCOCCOCCOCCOCCOCCOCCOCCOCCOCCOCCOCCOCCC(N)=O)C(C)C)C(C)C [Peptide R3-2-1] (H-LLFLVTLPFWIHYVRGHNWVFGHDDD-X1; N-terminus assumed)
- CCR3 degradation induced by eotaxin and RANTES [1]: enhanced CCR3 degradation induced by eotaxin and RANTES
- tolerance to inhibition of CCL11-induced chemotaxis ([2]; 1 μM for 24, 48 or 72 hour, CCL11 12 nM): retains it full inhibitory activity
- inhibition of CCR3-mediated chemotaxis induced by Eotaxin/CCL11, RANTES/CCL5 and MEC/CCL28 ([2]; AML14.3D10-CCR3 cells, R3-2-1 0.4, 2 or 10 μM): inhibits chemotaxis induced by Eotaxin/CCL11, RANTES/CCL5 and MEC/CCL28 in a dose-dependent fashion
